Source: patent publication US20170368018A1, “USE OF ELLAGIC ACID DIHYDRATE IN PHARMACEUTICAL FORMULATIONS TO REGULATE BLOOD GLUCOSE LEVELS” (HALO LIFE SCIENCE, LLC, priority 2014, published 2017)
“Also recorded” adds a separate entry of the source.

Legend:
[1] = system: AKT / Phos AKT in C2C12 cells; assay: AKT:phos AKT ratio by immunocytochemistry, high-content imaging; assay type: cell-based, mouse; conditions: C2C12, serum starved 1 hr, treated 30 minutes, 4 nM-4 μM, FIG. 8
Protocol: Stimulation of AKT pathways and MAPK pathways in ellagic acid dihydrate, metformin, and insulin treated cell cultures was performed. Insulin stimulates glucose uptake into cells by increasing GLUT4 activation, and AKT, specifically phos-AKT, signaling alters GLUT4 translocation. […] Cellular assays were performed using mouse myoblast C2C12 cells. […] Serum starved cells (1 hr) were treated for 30 minutes with each of the tested compounds.

[2] = system: mouse myoblast C2C12 cells; assay: Glucose uptake, 2-NBDG labeling, flow cytometry, C2C12; assay type: cell-based
Protocol: Cellular assays were performed using mouse myoblast C2C12 cells and MEF cells. […] Increased glucose uptake was indicated as increasing signal of 2-NBDG ([…]) in cells. Glucose uptake assays were carried out in a final incubation volume of 50 μl consisting of, 2-NBDG), (100 μM) in 1× Phosphate Buffered Saline w/Ca+, Mg+ (PBS++). The same buffer was used for washing cells. Insulin was used as a positive control. All testing compounds were prepared in 10% DMSO and diluted 1:100 for a final concentration of 0.1% DMSO (vehicle). Cells were culture to 70-90% confluence and then washed twice with PBS++. Cells were incubated for 30 minutes at 37° C. in PBS++. Nuclear stain, HCS CellMask stain (blue, Invitrogen), and/or testing compounds (ellagic acid dihydrate, insulin, or vehicle) were added. Cells were incubated for 30 min at 37° C. Cells were washed twice with PBS++and incubated with 2-NBDG for 10 minutes. Cells were washed thrice with PBS++and then imaged in PBS++. Alternatively, the final PBS wash was removed and cells were incubated with Accutase (Invitrogen) for 10 min at 37° C., neutralized with 10% FBS in 1× PBS, and analyzed by flow cytometry. An additional experiment was performed to measure glucose uptake in C2C12 cells exposed to metformin, insulin and ellagic acid dihydrate 2 (batch 2). FIG. 5C.

[3] = system: mouse embryonic fibroblasts (MEFs); assay: Cytotoxicity: cell membrane integrity by propidium iodide (PI) labeling; assay type: cell-based; conditions: 48 hr exposure
Protocol: (§1) The cytotoxicity of ellagic acid dihydrate in in vitro cell culture was evaluated. Cellular assays were performed using mouse embryonic fibroblasts (MEFs). Cells were unexposed (No Treatment) or exposed to varying concentrations of ellagic acid dihydrate (4 μM-0.04 nM) or vehicle (0.1% DMSO) for 48 hrs. All assays were run in triplicate.
Loss of cellular membrane integrity is an indication of cell death. Cell membrane integrity/cell toxicity was determined by adding propidium iodide (PI) to suspended cells prior to flow cytometry. PI is a red-fluorescent DNA stain that is excluded by live-healthy cells but will enter dead cells in a population. The presence of PI in 500-1000 cells per treatment group was determined by flow cytometry (Accuri C6, BD Biosciences). Cell with disrupted membranes, associated with cell death, are expected to be positively labeled with PI.

[4] = system: mouse embryonic fibroblasts (MEFs); assay: Cytotoxicity: cell proliferation by automated cell counting (flow cytometry); assay type: cell-based; conditions: 48 hr exposure, 4 μM-0.04 nM, changes not statistically significant (P>0.05)
Protocol: as §1
Cell proliferation rates were determined using automated cell counting of cells after 48 hr exposure to ellagic acid dihydrate in complete medium (DMEM w/10% FBS). Cell were then washed thrice with 1× PBS and incubated with Accutase (Invitrogen) for 10 min at 37° C., neutralized with 10% FBS in 1× PBS, and analyzed by flow cytometry. Cell concentrations were determined by cell counting (500-1000) on a flow cytometer (Accuri C6, BD Biosciences). The concentration of cells reflects the impact of ellagic acid dihydrate on the cell population numbers (cell death and cell proliferation).

[5] = system: p44/42 MAPK / Phos p44/42 MAPK in C2C12 cells; assay: p44/42 MAPK:phos p44/42 MAPK ratio by immunocytochemistry, high-content imaging; assay type: cell-based, mouse; conditions: C2C12, treated 30 minutes, 400 nM, 0.04 nM, FIG. 9
Protocol: Stimulation of AKT pathways and MAPK pathways in ellagic acid dihydrate, metformin, and insulin treated cell cultures was performed. Insulin stimulates glucose uptake into cells by increasing GLUT4 activation, and AKT, specifically phos-AKT, signaling alters GLUT4 translocation. […] Cellular assays were performed using mouse myoblast C2C12 cells. Relative protein levels of AKT:phos AKT and p44/42 MAPK:phos p44/42 MAPK were determined.
Serum starved cells (1 hr) were treated for 30 minutes with each of the tested compounds. Ratios of phosphorylated to non-phosphorylated proteins were determined using immunocytochemistry labeling (anti-AKT, anti-Phos AKT; or anti-p44/42 MAPK, anti-Phos p44/42 MAPK) on a high-content imaging system (Operetta, Perkin Elmer) using the fluorescent signal of anti-rabbit Alexa 647. Increased phosphorylation is indicated as decrease in signal of AKT:Phos AKT ratio (log2 scale) and p44/42 MAPK:Phos p44/42 MAPK ratio (log2 scale) relative to vehicle treated cells.

[6] = system: GLUT4-GFP in mouse myoblast C2C12 cells; assay: Localization of glucose transporter GLUT4-GFP, time-lapse confocal microscopy; assay type: cell-based; conditions: C2C12, 4000 nM
Protocol: Induction of glucose transporter, GLUT-4, in ellagic acid dihydrate treated cell cultures was studied. Cellular assays were performed using mouse myoblast C2C12 cells. The cells were infected with a fusion glucose transporter 4 green fluorescent protein (GLUT4-GFP). This protein allows the visualization of GLUT4 by imaging the GFP under fluorescent time-lapse microscopy. Frames were compiled to produce time-lapse images of cellular changes with no treatment or treatment with insulin. The localization of glucose transporter (GLUT4-GFP) was performed in final incubation volume of 505 μL, consisting of 500 μL of Hank's Buffer (Invitrogen) and 5 μl of tested compounds. Insulin was used as positive controls and vehicle (0.1% DMSO) as the negative control. All test compounds were prepared in 10% DMSO and diluted 1:100 for a final concentration of 0.1% DMSO (vehicle). The cells were rinsed in Hank's Buffer thrice and then incubated in Hank's Buffer at 37° C. for one hour. The test compounds were added (ellagic acid dihydrate, insulin, or vehicle) and the cells were imaged using laser-confocal microscopy (Leica TCS SP5 X) with FITC fluorescent filters to determine changes in GLUT4-GFP localization. Time-lapse images (TIF) were collected and post-processed using Image-J (NIH) for video construction.

SMILES: O.O.O=c1oc2c(O)c(O)cc3c(=O)oc4c(O)c(O)cc1c4c23 [ellagic acid dihydrate]
- AKT:Phos AKT ratio (log2 scale) relative to vehicle treated cells [1]: increase in AKT relative to Phos-AKT signal
- increase in glucose uptake in myoblasts relative to fibroblasts ([2]; C2C12 (FIGS. 5A, 5B) versus MEFs (FIGS. 4A, 4B)): ~4 ×
- increase in glucose uptake compared with metformin ([2]; C2C12, 4000 nm, FIG. 5C (batch 2)): greater increase in glucose uptake than metformin
- dose effect for increasing glucose uptake ([2]; C2C12, flow cytometry, 4 μM-0.04 nM): showed a dose effect
- glucose uptake (2-NBDG signal) relative to vehicle ([2]; C2C12, flow cytometry, FIG. 5A): significantly greater than vehicle treated
- glucose uptake relative to insulin ([2]; myoblasts, at most concentrations tested, significant at 4 nM-4 μM, dihydrate): significantly more glucose uptake relative to insulin; also recorded: exceeded the uptake induced by insulin
- Cell membrane integrity relative to the vehicle or untreated cells ([3]; 400 nM-0.4 nM, not statistically significant (P>0.05)): increased
- Cell membrane integrity (% cells negative for PI) ([3]; 4000 nM): 95.40%
- Cell proliferation [4]: trend toward increasing cell proliferation
- p44/42 MAPK:Phos p44/42 MAPK ratio relative to vehicle treated cells [5]: increase in p44/42 MAPK
- GLUT4-GFP around the cell nucleus [6]: decrease in nuclear GLUT4-GFP
- ruffling of filopodia at the surface of the cell [6]: rapid ruffling of filopodia
- time course of GLUT4-GFP and membrane changes compared with insulin [6]: slightly delayed
